Patent US10233186B2, “Inhibitors of activin receptor-like kinase” (BLUEPRINT MEDICINES CORPORATION, priority 2016, dated 2019)

Molecular target: T1, ALK2 R206H (GST-tagged mutant ALK2) (Homo sapiens, UniProt Q04771, R206H)
T1 construct: purchased Carna Bioscience or ThermoFisher 09-148 or PV6232
T1 sequence (Q04771 21-509 R206H): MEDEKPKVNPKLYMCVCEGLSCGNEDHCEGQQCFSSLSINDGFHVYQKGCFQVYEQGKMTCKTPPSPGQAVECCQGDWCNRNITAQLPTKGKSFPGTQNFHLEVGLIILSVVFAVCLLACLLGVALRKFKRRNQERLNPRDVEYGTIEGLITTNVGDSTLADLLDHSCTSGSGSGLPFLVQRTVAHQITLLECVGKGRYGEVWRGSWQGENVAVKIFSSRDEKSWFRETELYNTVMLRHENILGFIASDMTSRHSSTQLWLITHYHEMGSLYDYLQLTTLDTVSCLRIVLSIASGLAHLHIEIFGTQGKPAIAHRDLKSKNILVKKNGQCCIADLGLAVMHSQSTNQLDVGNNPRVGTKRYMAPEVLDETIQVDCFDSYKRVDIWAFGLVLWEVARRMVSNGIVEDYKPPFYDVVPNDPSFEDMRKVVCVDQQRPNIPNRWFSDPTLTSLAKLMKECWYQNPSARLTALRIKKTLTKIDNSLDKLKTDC
Experiment: ALK binding assay (LANTHASCREEN TR-FRET competitive binding, displacement of Kinase Tracer 178)
Conditions: ALK2 R206H, LANTHASCREEN TR-FRET competitive binding; read-out: Binding Assay (IC50)
Method: Binding assays were conducted using the LANTHASCREEN® technology (ThermoFisher Scientific). LANTHASCREEN® is a competitive binding, displacement assay where the assumed steady state occupancy of the binding site is measured using a time-resolved, fluorescence energy transfer (TR-FRET) readout between a fluorescent tracer and Europium (Eu)-tagged antibody specific for the kinase or expression tag (e.g. GST) of interest. Displacement of the tracer by a compound of the disclosure reduces, and is directly proportional to, the TR-FRET between the tracer and the antibody. Tracer was used at a concentration equal to or near to its Kd for the kinase.
In all cases, the kinase (2-5 nM) was mixed with Eu-tagged antibody (10 nM) mix and tracer (50 nM) were incubated with test compound titrations prepared in 100% DMSO (1% DMSO final) for 30 minutes at room temperature. All reagents and compounds were dissolved in Kinase Buffer A (ThermoFisher) to achieve the final concentration. […] This readout was normalized to 0% and 100% inhibited control wells, plotted against inhibitor concentration, and fitted to a 4-parameter log dose response curve.
Blank values in the table indicate that the particular compound was not tested in this assay.

SMILES	IC50
O=C(C1CC1)N1CCN(c2ccnn3cc(-c4ncc5n4CCNC5)cc23)CC1 [Compound 101]	> 0.05 µM
O=C(C1CC1)N1CCN(c2ccnn3cc(-c4ccn(C5CCNC5)n4)cc23)CC1 (centres unmarked) [Compound 105]	0.01 to 0.05 µM
CN1CCn2c(cnc2-c2cc3c(N4CCN(C(=O)C5CC5)CC4)ccnn3c2)C1 [Compound 106]	> 0.05 µM
O=C(C1CC1)N1CCN(c2ccnn3cc(-c4nc5c(s4)CCNC5)cc23)CC1 [Compound 108]	0.01 to 0.05 µM
O=C(C1CC1)N1CCN(c2ccnn3cc(-c4ccc(Br)cc4)cc23)CC1 [Compound 119]	> 0.05 µM
O=C(C1CC1)N1CCN(c2ccnn3cc(-c4ccc(NC5=NCCN5)cc4)cc23)CC1 [Compound 121, cyclopropyl(4-(6-(4-(4,5-dihydro-1H-imidazol-2-ylamino)phenyl)pyrrolo[1,2-b]pyridazin-4-yl)piperazin-1-yl)methanone]	< 0.01 µM
O=C(C1CC1)N1CCN(c2ccnn3cc(-c4ccc(C5CCOCC5)cc4)cc23)CC1 [Compound 126]	0.01 to 0.05 µM
CCN1CCN(c2ccc(-c3cc4c(N5CCN(C(C)=O)CC5)ccnn4c3)cc2)CC1 [Compound 136]	0.01 to 0.05 µM
CCN1CCC(n2ccc(-c3cc4c(N5CCN(C(=O)C6CC6)CC5)ccnn4c3)n2)C1 (centres unmarked) [Compound 138]	0.01 to 0.05 µM
CCN1CCC(n2cc(-c3cc4c(N5CCN(C(=O)C6CC6)CC5)ccnn4c3)cn2)C1 (centres unmarked) [Compound 139]	< 0.01 µM
CCNC(=O)N1CCN(c2ccnn3cc(-c4ccc([C@H]5CNCCO5)cc4)cc23)CC1 [Compound 141]	0.01 to 0.05 µM
O=C(C1CC1)N1CCN(c2ccnn3cc(-c4ccc(N5CCNCC5=O)cc4)cc23)CC1 [Compound 151]	> 0.05 µM
CCN1CCN(c2ccc(-c3cc4c(N5CCN6C(=O)CCC6C5)ccnn4c3)cc2)CC1 (centres unmarked) [Compound 157, 2-(6-(4-(4-ethylpiperazin-1-yl)phenyl)pyrrolo[1,2-b]pyridazin-4-yl)hexahydropyrrolo[1,2-a]pyrazin-6(7H)-one]	> 0.05 µM
C[C@H]1CNC[C@@H](c2ccc(-c3cc4c(N5CCN(C(=O)C6CC6)CC5)ccnn4c3)cc2)O1 [Compound 165]	0.01 to 0.05 µM
O=C(C1CC1)N1CCN(c2ccnn3cc(-c4ccc(OCC5CCNC5)cc4)cc23)CC1 (centres unmarked) [Compound 166]	< 0.01 µM
C[C@@H]1CNC[C@@H](c2ccc(-c3cc4c(N5CCN(C(=O)C6CC6)CC5)ccnn4c3)cc2)O1 [Compound 168]	0.01 to 0.05 µM
CCN1CC2CN(c3ccnn4cc(-c5ccc(N6CCNCC6)cc5)cc34)CCN2C1=O (centres unmarked) [Compound 171]	0.01 to 0.05 µM
O=C(C1CC1)N1CCN(c2ccnn3cc(-c4ccc([C@H]5CCNC[C@H]5F)cc4)cc23)CC1 [Compound 175]	0.01 to 0.05 µM
O=C(C1CC1)N1CCN(c2ccnn3cc(-c4ccc([C@@H]5CCNC[C@@H]5F)cc4)cc23)CC1 [Compound 176]	0.01 to 0.05 µM
CCN1CCC(n2cc(-c3cc4c(N5CCN(C(=O)C6CC6)CC5)ccnn4c3)cn2)CC1 [Compound 183]	0.01 to 0.05 µM
Cc1nc(C2CCNCC2)sc1-c1cc2c(N3CCN(C(=O)C4CC4)CC3)ccnn2c1 [Compound 190]	< 0.01 µM
O=C(C1CC1)N1CCN(c2ccnn3cc(-c4ccc(N5CCC6(CNC6)C5)cc4)cc23)CC1 [Compound 198]	< 0.01 µM
CCN1CCC[C@@H](c2ccc(-c3cc4c(N5CCN(C(=O)C6CC6)CC5)ccnn4c3)cc2)C1 [Compound 206]	< 0.01 µM
CCN1CCC(c2ccc(-c3cc4c(N5CCN(C(=O)C(C)=O)CC5)ccnn4c3)cc2)CC1 [Compound 215]	0.01 to 0.05 µM

SMILES	IC50
CCN1CCC1COc1ccc(-c2cc3c(N4CCN(C(=O)C5CC5)CC4)ccnn3c2)cc1 (centres unmarked) [Compound 218]	0.01 to 0.05 µM
CC(C)N1CC(Oc2ccc(-c3cc4c(N5CCN(C(=O)C6CC6)CC5)ccnn4c3)cc2)C1 [Compound 220]	< 0.01 µM
O=C(C1CC1)N1CCN(c2ccnn3cc(-c4c(F)cc(N5CCNCC5)cc4F)cc23)CC1 [Compound 239]	< 0.01 µM
O=C(C1CC1)N1CCN(c2ccnn3cc(-c4ccc(N5CCC6(CCNC6)C5)cc4)cc23)CC1 (centres unmarked) [Compound 244]	< 0.01 µM
O=C(C1CC1)N1CCN(c2ccnn3cc(-c4ccc(OCCN5CCNCC5)cc4)cc23)CC1 [Compound 273, cyclopropyl(4-(6-(4-(2-(piperazin-1-yl)ethoxy)phenyl)pyrrolo[1,2-b]pyridazin-4-yl)piperazin-1-yl)methanone]	0.01 to 0.05 µM
CCN1CCN(c2ccc(-c3cc4c(N5CCN(C(=O)[C@@H]6C[C@@H]6F)CC5)ccnn4c3)cc2)CC1 [Compound 291]	0.01 to 0.05 µM
CCN1CCN(c2ccc(-c3cc4c(N5CCN(C(=O)C6(F)CC6)CC5)ccnn4c3)cc2)CC1 [Compound 294]	0.01 to 0.05 µM
CC(C)N1CCC(c2ccc(-c3cc4c(N5CC6CC(C5)N6C(=O)C5CC5)ccnn4c3)cc2)CC1 [Compound 306]	0.01 to 0.05 µM
CCN1CCC(c2ccc(-c3cc4c(N5CCN(C(=O)C6(C(C)=O)CC6)CC5)ccnn4c3)cc2)C1 (centres unmarked) [Compound 311]	> 0.05 µM
CCNC(=O)N1CC2CC(C1)N2c1ccnn2cc(-c3ccc(C4CCN(C(C)C)CC4)cc3)cc12 [Compound 319]	> 0.05 µM
CCN1C[C@H]2CN(c3ccnn4cc(-c5ccc(N6CCN(C(C)C)CC6)cc5)cc34)CCN2C1=O [Compound 331]	0.01 to 0.05 µM
CCN(C)C(=O)N1CCN(c2ccnn3cc(-c4ccc(C5CCN(C(C)C)CC5)cc4)cc23)CC1 [Compound 342]	0.01 to 0.05 µM
CCN1CCC(c2ccc(-c3cc4c(N5CCN(C(=O)C6(C(F)F)CC6)CC5)ccnn4c3)cc2)C1 (centres unmarked) [Compound 356]	0.01 to 0.05 µM
CCN1CCN(c2cc(F)c(-c3cc4c(N5CCN(C(=O)C6CC6)CC5)ccnn4c3)c(F)c2)CC1 [Compound 362]	0.01 to 0.05 µM
CCN1CCC(c2ccc(-c3cc4c(N5CCN(C(=O)C6CC6C6CCC6)CC5)ccnn4c3)cc2)C1 (centres unmarked) [Compound 372]	< 0.01 µM
O=C(C1CC1)N1CCN(c2ccnn3cc(-c4ccc(N5CCNCC5C(F)(F)F)cc4)cc23)CC1 (centres unmarked) [Compound 374, cyclopropyl(4-(6-(4-(2-(trifluoromethyl)piperazin-1-yl)phenyl)pyrrolo[1,2-b]pyridazin-4-yl)piperazin-1-yl)methanone]	0.01 to 0.05 µM
N#C[C@H]1CC[C@H](C(=O)N2CCN(c3ccnn4cc(-c5ccc(C6CNCC6F)cc5)cc34)CC2)CC1 (some centres unmarked) [Compound 378]	< 0.01 µM
CCN(CC)C(=O)N1CCN(c2ccnn3cc(-c4ccc(C5CCN(C(C)C)CC5)cc4)cc23)CC1 [Compound 392]	0.01 to 0.05 µM
CCN1CCN(c2ccc(-c3cc4c(N5CCN(C(=O)N6CC(OC)C6)CC5)ccnn4c3)cc2)CC1 [Compound 397]	0.01 to 0.05 µM
CCN1CCN(c2ccc(-c3cc4c(N5CCN(C(=O)C6CC6)C(C(F)F)C5)ccnn4c3)cc2)CC1 (centres unmarked) [Compound 403, cyclopropyl(2-(difluoromethyl)-4-(6-(4-(4-ethylpiperazin-1-yl)phenyl)pyrrolo[1,2-b]pyridazin-4-yl)piperazin-1-yl)methanone]	> 0.05 µM
CC(C)N1CCC(c2ccc(-c3cc4c(N5CCN(C(=O)C6CC(C#N)C6)CC5)ccnn4c3)cc2)CC1 (centres unmarked) [Compound 405]	< 0.01 µM
CCN1CCC(c2ccc(-c3cc4c(N5CCN(C(=O)C6(C(F)(F)F)CC6)CC5)ccnn4c3)cc2)C1 (centres unmarked) [Compound 410]	> 0.05 µM
CC(C)N1CCC(c2ccc(-c3cc4c(N5CCN(C(=O)C6(C7CC7)CC6)CC5)ccnn4c3)cc2)CC1 [Compound 414]	0.01 to 0.05 µM
